The values that follow come from patent US4822408A, “Alkyl-, alkenyl- and alkynylnitroguanidines as cytokinin plant growth regulants” (American Cyanamid Company, priority 1987, dated 1989).

Converted amounts (≈) assume the structure as drawn. “And” between values parts separate entries of the source, which are not always exact repeats. Equal values may be shown once. Read-outs that look alike come from different tables or passages of the source.

One test relates to cucumber cotyledon. The test is described as follows: tissue or blood. The format is cell-based, Cucumis sativa var. National Pickling. The note with it: 0.06-64 ppm typically tested, inactive if more than 200 ppm; for EC50: Cucumis sativus, read-out: ED50 (the source's name).
The next test has as its system Soybean callus. In words: Soybean callus culture bioassay (definitive cytokinin activity). In kind it is cell-based, Glycine max CV. Acme. The note with it: for Callus Dry Weight / Callus Fresh Weight: 6 weeks, 3 flasks per treatment; for Callus Dry Weight: no supplement 22.2 ± 9; for Callus Fresh Weight: initial fresh weight 240 mg, no supplement 283 ± 99. As to the method:
Soybean callus cultures (from Glycine max CV. Acme) are subdivided into smaller callus pieces each weighing about 80 mg each. These pieces are placed on 50 ml of agar containing nutrient medium from which the usual growth supporting cytokinin hormone has been deleted. Without cytokinin hormone, the callus tissue will not divide and grow. Any compound which can provide for growth of the callus under these circumstances is by definition a cytokinin. The test is thus definitive and diagnostic. Different flasks of the nutrient medium are therefore supplemented with either the known cytokinin N^6 -benzyladenine as a standard or with the indicated test compound. After 6 weeks of axenic culture, the callus pieces are weighed, then oven dried and weighed again, such that the amount of callus growth is determined as a function of increased tissue weight.

The next test deals with cucumber cotyledons. In words: Antagonism of cytokinin activity by a cytokinin antagonist in the cucumber cotyledon bioassay. The format is cell-based, Cucumis sativa var. National Pickling. As to the method:
Cucumber seeds (Cucumis sativa var. National Pickling) are germinated in vermiculite in the dark at 30° C. for 6 days. The cotyledons are subsequently excised under a dim green safelight and placed abaxial side up in […] petri dishes at 8 pairs of cotyledons per dish. The dishes also contain three layers of Whatman No. 1 filter paper and 10 mls of test solution. The dishes with cotyledons are returned to the dark at 30° C. for about 18 hours. Thereafter the dishes are placed under fluorescent light at about 12 μw per square cm for 3 hours at 25° C. The cotyledons are then blotted and placed in 5 ml of dimethylformamide overnight and at 4° C. to extract the chlorophyll. The leachate is then analyzed for absorbance at 663 nanometers by spectrophotometry (Moran and Porath Plant Physical (1980) 65: 478-9) to determine relative chlorophyll biosynthesis. The cotyledons are then measured for area by using a sensitive leaf area meter. These two parameters, chlorophyll synthesis and enhanced expansion of the cotyledons are used as a measure of relative cytokinin activity. The test solutions typically contain between 0.06 and 64 ppm of test compound, up to 1.3% acetone, and 40 mM KCl. The amount of compound is varied in order to determine the dose at which there is achieved a response which is 50% of the maximum possible enhancement, as judged by a standard. This is termed the 50% effective dose or ED50 (Table).
The above compound is a known (Hecht et al.) Biochemistry 10:4224 (1971) antagonist of the activity of cytokinins such as the natural cytokinin 6-(3-methyl-2-butenylamino)purine (2iP). For example 0.003 μM 2iP is required for maximum growth of tobacco callus tissue cultures. The antagonist decreases this effect in the range of 0.1 μM (detectable) to 0.73 μM (lethal). (Ref. Skoog et al. Phytochemistry 12: 25-37 (1973)).
Test solutions are prepared to contain a test compound in both the presence and absence of the antagonist.

Test [1] concerns tobacco callus tissue cultures. The conditions noted are these: cited from earlier work.
In test [2] the test system is habituated callus tissue (Nicotiana tabacum A21-10H). In words: Stimulation of callus growth from a habituated line of Nicotiana tabacum. The arrangement: key to Chlorophyll production: -: None; +: Slight; ++: Moderate; +++: Very Good. The format is cell-based. The conditions noted are these: for Callus Growth Fresh weight: 0.02 ppm naphthalene acetic acid, untreated 0.6; for Chlorophyll production: untreated -. As to the method:
A specialized callus tissue (Nicotiana tabacum A21-10H) which was known to be unique in that it had been selected to no longer require cytokinins for callus to grow (this condition is known as "habituated") as long as 2 ppm naphthalene acetic acid was present in the medium, is transferred to flasks of basal media containing mineral salts based on the formulation of Murashige and Skoog, Physiologia plantarum 15: 473-497 (1962), and containing 100 mg per liter of i-inositol, 0.4 mg per liter of thiamine.HCl, and 3% sucrose (Huang, L. C. and T. Murashige 1976, TCA manual 3(1): 539-548) as well as 0.9% to 0.95% Difco® agar. The pH of the medium is adjusted to pH 5.8.
Test solutions are added from 5000 ppm stock solutions in ethanol and the stimulation of callus growth determined by the increase in fresh weight per treatment (per flask) in grams and by chlorophyll production rated as indicated in the rating system below. (No shoot regeneration can occur in this line due to the length of time (>4 years) it has been maintained in culture.)

Consider `CCCCNC(=N)N[N+](=O)[O-]` [-n-C4 H9], for which the EC50 with cucumber cotyledon was found to be 31 µg/mL (≈ 194 µM).
In the case of `COCC(C)NC(=N)N[N+](=O)[O-]` (centres unmarked) [CH3 OCH2 CH(CH3)], the EC50 in the test with cucumber cotyledon turned out to be 113 µg/mL (≈ 641 µM).
On to `CCOCCNC(=N)N[N+](=O)[O-]` [C2 H5 OCH2 CH2], for which, in the test on cucumber cotyledon, the EC50 was determined as 113 µg/mL (≈ 641 µM).
As to `C=CCNC(=N)N[N+](=O)[O-]` [CH2CHCH2], the ED50 in the test with cucumber cotyledon is on record as 22 ppm.
For `CCC(C)(C)NC(=N)N[N+](=O)[O-]` [C2 H5 C(CH3)2], in the test with cucumber cotyledon, the EC50 was determined as 22 µg/mL (≈ 126 µM).
On to `c1ccc(CNc2ncnc3nc[nH]c23)cc1` [N^6 benzyladenine, N^6 -benzyladenine], for which the “optimum concentration of the standard” value with Soybean callus is listed as 10^-6 M. For the same compound, in the test on Soybean callus (10^-4 M), the “effect on callus growth at 10^-4 M” value was “supraoptimal effect whereby the beneficial effect was negated”, the “Callus Dry Weight” value is recorded as 28 ± 5 mg per 3 pieces and the “Callus Fresh Weight” value is 434 ± 193 mg per 3 pieces. In the test with Soybean callus (10^-6 M), the “Callus Dry Weight” value came to 351 ± 63 mg per 3 pieces and the “Callus Fresh Weight” value is given as 5826 ± 1110 mg per 3 pieces. Besides, in the test with cucumber cotyledons (Experiment A, 0.1 ppm, antagonist none, H2O alone 370), the “Relative Chlorophyll” value amounted to 853. For the same compound, the “Relative Chlorophyll” value in the test on cucumber cotyledons (Experiment A, 0.1 ppm, with antagonist 10 ppm, H2O alone 370) was 460.
In the case of `C/C(=C\CNC(=N)N[N+](=O)[O-])CO`, the EC50 with cucumber cotyledon stood at 2.5 µg/mL (≈ 13.3 µM).
Same read-out and setting: the figure for `N=C(NCCCC(N)C(=O)O)N[N+](=O)[O-]` (centres unmarked) is 31 µg/mL (≈ 141 µM).
Same read-out and setting: then `C/C(Cl)=C/CNC(=N)N[N+](=O)[O-]`, with 1 µg/mL (≈ 5.19 µM); and `CCCCCNC(=N)N[N+](=O)[O-]` [-n-C5 H11], with 31 µg/mL (≈ 178 µM).
For the compound `N=C(NCCCCO)N[N+](=O)[O-]` [HOCH2 CH2 CH2 CH2], in the test on cucumber cotyledon, the EC50 was found to be 113 µg/mL (≈ 641 µM).
`CC(C)NC(=N)N[N+](=O)[O-]` [(CH3)2 CH] came in with an ED50 in the test on cucumber cotyledon of 45 ppm.
Consider `C=CC(C)(C)NC(=N)N[N+](=O)[O-]` [CH2CHC(CH3)2], for which the ED50 with cucumber cotyledon is given as 157 ppm.
As for `Cc1n[nH]c2c(NCCC(C)C)ncnc12` [7-(Isopentylamine)-3-methyl-1H-Pyrazolo[4,3-d]pyrimidine], in the test with cucumber cotyledons, the “Relative Chlorophyll” value is 415 and 406; the “effect of antagonist on response of cucumber cotyledons to N^6-benzyladenine” value was “prevents the response of cucumber cotyledons”; the “prevention of enhancement of chlorophyll synthesis” value is reported as “able to fully prevent the enhancement of chlorophyll synthesis”. In test [1] (detectable, against 2iP), the “antagonist concentration decreasing the effect of 2iP, detectable” value is 0.1 µM. The “antagonist concentration decreasing the effect of 2iP, lethal” value in test [1] (lethal, against 2iP) was 0.73 µM.
In the case of `CC(C)=CCNC(=N)N[N+](=O)[O-]` [1-(3-methyl-2-butenyl)-3-nitroguanidine], the EC50 in the test on cucumber cotyledon worked out at 3.8 µg/mL (≈ 22.1 µM). In addition, in the test on Soybean callus (10^-4 M), the “effect on callus growth at 10^-4 M” value was “extremely active”, the “Callus Dry Weight” value is listed as 410 ± 87 mg per 3 pieces and the “Callus Fresh Weight” value worked out at 5324 ± 1148 mg per 3 pieces. Besides, in the test on cucumber cotyledons (Experiment B, 20 ppm, antagonist none, H2O alone 443), the “Relative Chlorophyll” value came to 1200. The “Relative Chlorophyll” value in the test with cucumber cotyledons (Experiment B, 20 ppm, with antagonist 10 ppm, H2O alone 443) is 388. For the same compound, in test [2] (Molar concentration 10^-4), the “Callus Growth Fresh weight” value amounted to 2.9 grams per flask and the Chlorophyll production result is given as “++”.
Turning to `CC(C)(C)NC(=N)N[N+](=O)[O-]` [(CH3)3 C], in the test on cucumber cotyledon, the ED50 was found to be 31 ppm.
Regarding `N=C(NCCC=C(Cl)Cl)N[N+](=O)[O-]` [(Cl)2 CCHCH2 CH 2], in the test on cucumber cotyledon, the EC50 came out at 11 µg/mL (≈ 48.4 µM).
Consider `CC(C)=CCNc1ncnc2nc[nH]c12` [2iP, 6-(3-methyl-2-butenylamino)purine], for which the “concentration required for maximum growth of tobacco callus tissue cultures” value in test [1] was 0.003 µM.
For the compound `CC(C)CCNC(=N)N[N+](=O)[O-]` [(CH3)2 CHCH2 CH2], the EC50 in the test with cucumber cotyledon turned out to be 64 µg/mL (≈ 367 µM).
The same measure, in the same setting: the figure for `CC(CO)CCNC(=N)N[N+](=O)[O-]` (centres unmarked) is 14 µg/mL (≈ 73.6 µM).
For the compound `c1coc(CNc2ncnc3[nH]cnc23)c1` [Kinetin], the “Callus Growth Fresh weight” value is given as 1.4 grams per flask in test [2] (Molar concentration 10^-4), 0.8 grams per flask in test [2] (Molar concentration 10^-5), 0.3 grams per flask in test [2] (Molar concentration 10^-6) and 0.2 grams per flask in test [2] (Molar concentration 10^-7). The Chlorophyll production result in test [2] (Molar concentration 10^-4), in test [2] (Molar concentration 10^-5), in test [2] (Molar concentration 10^-6) and in test [2] (Molar concentration 10^-7) was “-” throughout. Further, the “efficacy in the habituated callus system” value in test [2] (reduced auxin level (0.02 ppm naphthalene acetic acid)) was “ineffective”.
